# Laboratory results: patent US20240398817A1, “CARDIO- AND RENOSAFE ANTIDIABETIC THERAPY” (priority 2018, published 2024)
# Tested on: patients with type 2 diabetes at high vascular risk
# Assay: Cardiovascular and Renal Outcomes Trial: linagliptin 5 mg once daily vs placebo on top of standard of care
# Type: in vivo
# Conditions: for Hazard ratio for hospitalised heart failure: vs placebo
# Description: The effect of linagliptin on cardiovascular risk in adult patients with type 2 diabetes mellitus and with increased CV risk evidenced by a history of established macrovascular or renal disease (e.g. as defined herein) was evaluated in a multi-center, multi-national, randomized, double-blind parallel group trial. The trial compared the risk of experiencing a major adverse cardiovascular event (MACE) between linagliptin and placebo when these were added to and used concomitantly with standard of care treatments for diabetes (HbA1c), cardiovascular risk factors and renal disease.
# The primary endpoint in this trial was the time to first occurrence of three point (3P) MACE. A major adverse cardiac event was defined as a cardiovascular death or a nonfatal myocardial infarction (MI) or a nonfatal stroke. The statistical analysis plan tested for non-inferiority for the occurrence of (3P) MACE. […] The secondary endpoint was a renal composite, defined as renal death or sustained end stage renal disease or sustained decrease of 40% or more in eGFR.
# Type 2 diabetes patient with insufficient glycemic control (naïve or pre-treated with any antidiabetic background medication, excluding treatment with GLP-1 receptor agonists, DPP-4inhibitors or SGLT-2 inhibitors if ≥consecutive 7 days, e.g. having HbA1c 6.5-10%), and high risk of cardiovascular events, e.g. defined by: • albuminuria (micro or macro) and previous macrovascular disease: e.g. defined according to Condition I as indicated below; • and/or • impaired renal function: e.g. as defined according to Condition II as indicated below;
# Background and aims: People with type 2 diabetes (T2D) are at increased risk for hospitalization for heart failure (hHF), particularly in the setting of concomitant cardiovascular (CV) and/or kidney disease. […] Here we present analyses of HF outcomes with the DPP-4 inhibitor linagliptin (LINA) vs. placebo (PBO) from a Cardiovascular and Renal Outcomes Trial assessing cardiovascular safety and renal microvascular outcome in patients with type 2 diabetes at high vascular risk, a large CV outcomes trial that enrolled participants with T2D at high risk for hHF due to concomitant CV and/or chronic kidney disease. Materials and methods: People with T2D and concomitant CV and/or kidney disease were randomized to receive LINA 5 mg, or PBO once daily (1:1), on top of standard of care. All hHF, CV outcomes, and deaths were centrally adjudicated, with individual and composite HF-related outcomes analyses comparing LINA vs. placebo. Investigator-reported HF-related adverse events, whether or not confirmed by adjudication, were also analyzed. A Cox proportional hazards model adjusting for region and history of HF was used for analyses of first events. Recurrent hHF events were analyzed using a negative binomial model.
# Methods: The present Cardiovascular and Renal Outcomes Trial randomized people with T2D and i) concomitant CV disease with UACR >30 mg/g or ii) prevalent CKD (i.e. GFR <45 ml/min/1.73m2 and/or UACR >200 mg/g) to receive the DPP-4 inhibitor linagliptin (5 mg) or placebo once daily in a double-blind fashion. The primary CV endpoint was 3P-MACE, with a key secondary kidney endpoint (adjudicated ESKD, renal death, or sustained ≥40% decrease in eGFR from baseline) and other renal outcomes (including albuminuria and eGFR slope) also assessed. Subgroups were assessed by baseline kidney function (eGFR ≥/<45 ml/min/1.73m2and eGFR ≥/<30, 45 or 60 ml/min/1.73m2).
# Adults with type 2 diabetes, HbA1c 6.5-10.0% inclusive, and high CV risk were eligible for inclusion. […] Macrovascular disease eligibility criteria was based on documented and confirmed history of myocardial infarction, coronary artery disease, stroke, carotid artery disease, or peripheral artery disease. Participants with end-stage kidney disease (ESKD), defined as eGFR <15 or requiring maintenance dialysis, were excluded.
# [1] = ACE inhibitors/angiotensin receptor blockers No
# [2] = ACE inhibitors/angiotensin receptor blockers Yes
# [3] = Albuminuria and previous macrovascular disease plus eGFR 45-75 with an UACR >200 mg/g
# [4] = Albuminuria and previous macrovascular disease plus renal impairment (eGFR 15-<45 with any UACR)
# [5] = Albuminuria and previous macrovascular disease without eGFR >45 mL/min/1.73 m2
# [6] = Angiotensin-converting enzyme inhibitors No
# [7] = Angiotensin-converting enzyme inhibitors Yes
# [8] = Angiotensin-converting enzyme inhibitors/angiotensin receptor blockers No
# [9] = Angiotensin-converting enzyme inhibitors/angiotensin receptor blockers Yes
# [10] = Blood pressure control SBP <140 mmHg
# [11] = Blood pressure control SBP <160 mmHg
# [12] = Blood pressure control SBP ≥140 mmHg
# [13] = Blood pressure control SBP ≥160 mmHg
structure (smiles),measurement,setting,value
"CC#CCn1c(N2CCC[C@@H](N)C2)nc2c1c(=O)n(Cc1nc(C)c3ccccc3n1)c(=O)n2C [Linagliptin, 1-[(4-methyl-quinazolin-2-yl)methyl]-3-methyl-7-(2-butyn-1-yl)-8-(3-(R)-amino-piperidin-1-yl)-xanthine]",3-point MACE: hazard ratio vs placebo,[1],0.93
same,3-point MACE: patients with event/patients analyzed,[1],89/634
same,Key secondary kidney outcome: hazard ratio vs placebo,[1],0.96
same,Key secondary kidney outcome: patients with event/patients analyzed,[1],62/634
same,3-point MACE: hazard ratio vs placebo,[2],1.06
same,3-point MACE: patients with event/patients analyzed,[2],345/2860
same,Key secondary kidney outcome: hazard ratio vs placebo,[2],1.07
same,Key secondary kidney outcome: patients with event/patients analyzed,[2],265/2860
same,3-point MACE: hazard ratio vs placebo,Age <65 years,1.11
same,3-point MACE: patients with event/patients analyzed,Age <65 years,154/1467
same,Key secondary kidney outcome: hazard ratio vs placebo,Age <65 years,1.05
same,Key secondary kidney outcome: patients with event/patients analyzed,Age <65 years,180/1467
same,"Patients with event/patients analysed, hospitalised heart failure",Age <65 years,67/1467
same,Hazard ratio for hospitalised heart failure,Age <65 years,0.87
same,3-point MACE: hazard ratio vs placebo,Age ≥65 years,0.97
same,3-point MACE: patients with event/patients analyzed,Age ≥65 years,280/2027
same,Key secondary kidney outcome: hazard ratio vs placebo,Age ≥65 years,1.05
same,Key secondary kidney outcome: patients with event/patients analyzed,Age ≥65 years,147/2027
same,"Patients with event/patients analysed, hospitalised heart failure",Age ≥65 years,142/2027
same,Hazard ratio for hospitalised heart failure,Age ≥65 years,0.91
same,3-point MACE: hazard ratio vs placebo,[3],0.88
same,3-point MACE: patients with event/patients analyzed,[3],119/647
same,Key secondary kidney outcome: hazard ratio vs placebo,[3],0.99
same,Key secondary kidney outcome: patients with event/patients analyzed,[3],74/647
same,3-point MACE: hazard ratio vs placebo,[4],1.12
same,3-point MACE: patients with event/patients analyzed,[4],195/1462
same,Key secondary kidney outcome: hazard ratio vs placebo,[4],1.01
same,Key secondary kidney outcome: patients with event/patients analyzed,[4],215/1462
same,3-point MACE: hazard ratio vs placebo,[5],0.97
same,Key secondary kidney outcome: hazard ratio vs placebo,[5],1.22
same,3-point MACE: patients with event/patients analyzed,All patients,434/3493
same,Key secondary kidney outcome: patients with event/patients analyzed,All patients,327/3493
same,"Patients with event/patients analysed, hospitalised heart failure",All patients,209/3494
same,Hazard ratio for hospitalised heart failure,All patients,0.90
same,"Patients with event/patients analysed, hospitalised heart failure",[6],132/1920
same,Hazard ratio for hospitalised heart failure,[6],1.02
same,"Patients with event/patients analysed, hospitalised heart failure",[7],77/1574
same,Hazard ratio for hospitalised heart failure,[7],0.75
same,"Patients with event/patients analysed, hospitalised heart failure",[8],48/634
same,Hazard ratio for hospitalised heart failure,[8],0.84
same,"Patients with event/patients analysed, hospitalised heart failure",[9],161/2860
same,Hazard ratio for hospitalised heart failure,[9],0.92
same,3-point MACE: hazard ratio vs placebo,Antiplatelet drugs No,1.10
same,3-point MACE: patients with event/patients analyzed,Antiplatelet drugs No,125/1102
same,Key secondary kidney outcome: hazard ratio vs placebo,Antiplatelet drugs No,1.25
same,Key secondary kidney outcome: patients with event/patients analyzed,Antiplatelet drugs No,131/1102
same,"Patients with event/patients analysed, hospitalised heart failure",Antiplatelet drugs No,61/1102
same,Hazard ratio for hospitalised heart failure,Antiplatelet drugs No,0.94
same,3-point MACE: hazard ratio vs placebo,Antiplatelet drugs Yes,0.99
same,3-point MACE: patients with event/patients analyzed,Antiplatelet drugs Yes,309/2392
same,Key secondary kidney outcome: hazard ratio vs placebo,Antiplatelet drugs Yes,0.94
same,Key secondary kidney outcome: patients with event/patients analyzed,Antiplatelet drugs Yes,196/2392
same,"Patients with event/patients analysed, hospitalised heart failure",Antiplatelet drugs Yes,148/2392
same,Hazard ratio for hospitalised heart failure,Antiplatelet drugs Yes,0.88
same,"Patients with event/patients analysed, hospitalised heart failure",Atrial fibrillation No,154/3175
same,Hazard ratio for hospitalised heart failure,Atrial fibrillation No,0.86
same,"Patients with event/patients analysed, hospitalised heart failure",Atrial fibrillation Yes,55/319
same,Hazard ratio for hospitalised heart failure,Atrial fibrillation Yes,1.06
same,3-point MACE: hazard ratio vs placebo,Beta blockers No,0.87
same,3-point MACE: patients with event/patients analyzed,Beta blockers No,134/1414
same,Key secondary kidney outcome: hazard ratio vs placebo,Beta blockers No,1.14
same,Key secondary kidney outcome: patients with event/patients analyzed,Beta blockers No,161/1414
same,"Patients with event/patients analysed, hospitalised heart failure",Beta blockers No,55/1414
same,Hazard ratio for hospitalised heart failure,Beta blockers No,0.95
same,3-point MACE: hazard ratio vs placebo,Beta blockers Yes,1.11
same,3-point MACE: patients with event/patients analyzed,Beta blockers Yes,300/2080
same,Key secondary kidney outcome: hazard ratio vs placebo,Beta blockers Yes,0.97
same,Key secondary kidney outcome: patients with event/patients analyzed,Beta blockers Yes,166/2080
same,"Patients with event/patients analysed, hospitalised heart failure",Beta blockers Yes,154/2080
same,Hazard ratio for hospitalised heart failure,Beta blockers Yes,0.88
same,"Patients with event/patients analysed, hospitalised heart failure",[10],84/1750
same,Hazard ratio for hospitalised heart failure,[10],0.68
same,"Patients with event/patients analysed, hospitalised heart failure",[11],164/3017
same,Hazard ratio for hospitalised heart failure,[11],0.84
same,"Patients with event/patients analysed, hospitalised heart failure",[12],125/1744
same,Hazard ratio for hospitalised heart failure,[12],1.15
same,"Patients with event/patients analysed, hospitalised heart failure",[13],45/477
same,Hazard ratio for hospitalised heart failure,[13],1.24
same,3-point MACE: hazard ratio vs placebo,Body mass index <30 kg/m^2,0.98
same,3-point MACE: patients with event/patients analyzed,Body mass index <30 kg/m^2,191/1516
same,Key secondary kidney outcome: hazard ratio vs placebo,Body mass index <30 kg/m^2,1.14
same,Key secondary kidney outcome: patients with event/patients analyzed,Body mass index <30 kg/m^2,162/1516
same,"Patients with event/patients analysed, hospitalised heart failure",Body mass index <30 kg/m^2,78/1516
same,Hazard ratio for hospitalised heart failure,Body mass index <30 kg/m^2,0.98
